Source: article PMC11137019, “G protein-specific mechanisms in the serotonin 5-HT2A receptor regulate psychosis-related effects and memory deficits” (Nature Communications, 2024)
Structures can show the parent of a compound that is named as a salt.

Molecular target: T1, 5-HT2AR (CHO-5-HT2A cell membranes) (Homo sapiens, UniProt P28223)
T1 construct: gene HTR2A; membranes from CHO-5-HT2A cell line prepared in the authors' laboratory
Assay: [3H]ketanserin competition binding, CHO-5-HT2A membranes
Settings: […] °C, […] min, orthosteric site

T1 sequence (P28223 whole entry): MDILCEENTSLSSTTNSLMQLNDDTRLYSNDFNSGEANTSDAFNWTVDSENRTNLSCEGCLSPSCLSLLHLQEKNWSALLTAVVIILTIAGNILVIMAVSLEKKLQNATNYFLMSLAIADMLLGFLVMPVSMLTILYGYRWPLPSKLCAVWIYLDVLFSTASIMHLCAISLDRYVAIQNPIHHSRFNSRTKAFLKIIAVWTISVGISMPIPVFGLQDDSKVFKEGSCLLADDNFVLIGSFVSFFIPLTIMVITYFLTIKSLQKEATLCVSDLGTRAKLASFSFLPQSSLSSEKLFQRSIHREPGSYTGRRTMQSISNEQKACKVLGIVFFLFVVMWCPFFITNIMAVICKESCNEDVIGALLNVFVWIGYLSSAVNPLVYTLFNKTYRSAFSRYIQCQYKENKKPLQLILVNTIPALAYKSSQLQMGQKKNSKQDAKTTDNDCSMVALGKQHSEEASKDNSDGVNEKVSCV

With `NCCc1c[nH]c2ccc(-c3ccc4c(c3)OCCO4)cc12` [OTV1, 2-[5-(2,3-dihydro-1,4-benzodioxin-6-yl)-1H-indol-3-yl]ethan-1-amine Hydrochloride] as the compound, how does the pKi read?
Its pKi is “Ligand binding affinities (pKi) are indicated for Nitro-I, Met-I, OTV1 and OTV2”.
